Earlier results as cited in patent US9956241B2, “Application of American Ginseng to enhance neurocognitive function” (priority 2009, dated 2018).

Columns and labels:
[1] = system: synaptosomal uptake of norepinephrine, dopamine, serotonin and GABA
[2] = system: brain serotonin concentrations; details: in vivo
[3] = system: choline acetyltransferase; details: rodent brains
[4] = system: human neuronal nicotinic acetylcholine receptors
[5] = system: corticosterone secretion
[6] = system: central cholinergic nerve endings
[7] = system: choline acetyltransferase and nerve growth factor messenger RNA; details: rat brains
[8] = system: LTP in the hippocampal formation; details: in vivo; rats
[9] = system: plasma corticosterone; details: rodents

For `CC(C)=CCC[C@](C)(O[C@@H]1O[C@H](CO)[C@@H](O)[C@H](O)[C@H]1O)[C@H]1CC[C@]2(C)[C@@H]1[C@H](O)C[C@@H]1[C@@]3(C)CC[C@H](O)C(C)(C)[C@@H]3[C@@H](O[C@@H]3O[C@H](CO)[C@@H](O)[C@H](O)[C@H]3O[C@@H]3O[C@@H](C)[C@H](O)[C@@H](O)[C@H]3O)C[C@]12C` [Re, ginsenoside Re], the “synaptosomal uptake of norepinephrine, dopamine, serotonin and GABA” value [1] is given as “may inhibit”.

In the case of `CC(C)=CCC[C@](C)(O[C@@H]1O[C@H](CO)[C@@H](O)[C@H](O)[C@H]1O)[C@H]1CC[C@]2(C)[C@@H]1[C@H](O)C[C@@H]1[C@@]3(C)CC[C@H](O)C(C)(C)[C@@H]3[C@@H](O[C@@H]3O[C@H](CO)[C@@H](O)[C@H](O)[C@H]3O)C[C@]12C` [Rg1, ginsenoside Rg1], the brain serotonin concentrations [2] is given as “marked alterations” and the choline acetyltransferase levels [3] is given as “increase choline acetyltransferase levels”.

In the case of `CC(C)=CCC[C@](C)(O)[C@H]1CC[C@]2(C)[C@@H]1[C@H](O)C[C@@H]1[C@@]3(C)CC[C@H](O)C(C)(C)[C@@H]3[C@@H](O[C@@H]3O[C@H](CO)[C@@H](O)[C@H](O)[C@H]3O[C@@H]3O[C@@H](C)[C@H](O)[C@@H](O)[C@H]3O)C[C@]12C` [Rg2, ginsenoside Rg2], the “interaction with nicotinic receptor subtypes” value [4] is given as “direct interaction”.

For `CC(C)=CCC[C@](C)(O[C@@H]1O[C@H](CO)[C@@H](O)[C@H](O)[C@H]1O)[C@H]1CC[C@]2(C)[C@@H]1[C@H](O)C[C@@H]1[C@@]3(C)CC[C@H](O[C@@H]4O[C@H](CO)[C@@H](O)[C@H](O)[C@H]4O[C@@H]4O[C@H](CO)[C@@H](O)[C@H](O)[C@H]4O)C(C)(C)[C@@H]3CC[C@]12C` [Rd, ginsenoside Rd], the corticosterone secretion [5] is given as “affect corticosterone secretion” and the “synaptosomal uptake of norepinephrine, dopamine, serotonin and GABA” value [1] is given as “may inhibit”.

In the case of `CC(C)=CCC[C@](C)(O[C@@H]1O[C@H](CO[C@@H]2O[C@H](CO)[C@@H](O)[C@H](O)[C@H]2O)[C@@H](O)[C@H](O)[C@H]1O)[C@H]1CC[C@]2(C)[C@@H]1[C@H](O)C[C@@H]1[C@@]3(C)CC[C@H](O[C@@H]4O[C@H](CO)[C@@H](O)[C@H](O)[C@H]4O[C@@H]4O[C@H](CO)[C@@H](O)[C@H](O)[C@H]4O)C(C)(C)[C@@H]3CC[C@]12C` [Rb1, ginsenoside Rb1], the “acetylcholine release and reuptake, number of choline uptake sites” value ([6]; hippocampus, to a lesser extent cortex) is listed as “modulation”, the acetylcholine release ([6]; isolated Rb1) is listed as “stimulate acetylcholine release” and the synaptosomal choline uptake ([6]; isolated Rb1) is listed as “increase synaptosomal choline uptake”. For the same compound, the brain serotonin concentrations [2] was “marked alterations”, the “expression of choline acetyltransferase and nerve growth factor messenger RNA” value [7] was “increased expression” and the “LTP in the hippocampal formation” value [8] was “modulation of LTP”. For the same compound, the “stress-induced increases in plasma corticosterone” value [9] was “inhibit” and the choline acetyltransferase levels [3] was “increase choline acetyltransferase levels”.
